The values that follow come from publication PMC11676817, “Antiproliferative and Morphological Analysis Triggered by Drugs Contained in the Medicines for Malaria Venture COVID-Box Against Toxoplasma gondii Tachyzoites” (Microorganisms, 2024).

Read-outs that look alike come from different tables or passages of the source.

Data set [1] has as its system Toxoplasma gondii tachyzoites of the RH strain. Description: microbe, parasite or virus in culture. As to conditions: 168 h; for inhibition at 1 µM: read-out: Inhibition of tachyzoite proliferation.
The conditions of data set [2]: Rat, cited from earlier work; for Plasma concentration (Cmax): ref Table S3 supplementary refs 3, 10, 12, 21; for Cmax: read-out: Plasma concentration (Cmax).
Data set [3] in a line: in vitro. As to conditions: human.
Data set [4] relates to Toxoplasma gondii tachyzoites of the RH strain. Put plainly: microbe, parasite or virus in culture. It is filed as cell-based. To be noted: Toxoplasma gondii; for activity at 0.125 µM: 125 nM; for activity at […]: 250 nM.
Data set [5] has the same test system. To be noted: for IC50: 7 days of treatment.
In data set [6] the test system is T. gondii tachyzoites. Description: Transmission electron microscopy of treated tachyzoites. It is filed as cell-based, Toxoplasma gondii. To be noted: 48 h. How it is done:
NHDF cultures infected with T. gondii were treated with compounds and fixed with 2.5% glutaraldehyde (EM Grade—Ted Pella Inc., Redding, CA, USA) in 0.1 M sodium cacodylate buffer pH 7.4 (Ted Pella Inc.). Cells were post-fixed with 1% osmium tetroxide, 1.25% potassium ferrocyanide, and 5 mM CaCl2, in 0.1 M sodium cacodylate buffer (pH 7.4). The sample fixation and processing for microscopy were performed as previously described. Samples were dehydrated in alcohol solutions of increasing concentrations (35–100%) and embedded in epoxy resin (Polybed 812, Polysciences). Ultrathin sections were collected in copper grids 300 mesh (Ted Pella Inc.), stained with uranyl acetate and lead citrate, and then observed in a Fei TecNai G2 120 kV Spirit Electron Microscope (FEI Company, Eindhoven, The Netherlands).

For data set [7] the following is noted: cited from earlier work.
The test system of data set [8] is T. gondii tachyzoites. As to conditions: ref [23], read-out: IC50 for T. gondii tachyzoites, cited from earlier work.
The nature of data set [9]: Cytotoxicity assay in NHDF cells (MTS). As to conditions: human.
In data set [10] the test system is T. gondii tachyzoites. Put plainly: Immunofluorescence microscopy of treated tachyzoites (aberrant cell division, rhoptry morphology). As to conditions: 1 µM, 24 h.
Method: Rabbit anti-IMC1 (1:1000) and anti-ARO (1:1000) (kindly provided by Dr. Dominique Soldati, Universite de Geneve, Switzerland) were used to label the mother cell and daughter cell pellicles throughout the endodyogeny process and rhoptries, respectively. Mouse anti-SAG1 (1:200; kindly donated by Dr. Tiago Mineo, Universidade Federal de Uberlândia) was used to label the parasite plasma membrane. DAPI (2 µg/mL; Sigma-Aldrich, St. Louis, MO, USA) was used to label the DNA. […] After labeling with antibodies, the coverslips were mounted onto slides using Prolong gold (Life Technologies), and samples were examined on a Zeiss Axio Observer Z1 microscope (Baden-Württemberg, Germany) or Olympus BX60 microscope (Shinjuku City, Tokyo, Japan).
The conditions of data set [11]: cited from earlier work. This is another data set of the same source.
[12] abbreviates: NHDF, read-out: IC50 (μM) in Tachyzoites, RH strain in NHDF cells, plaque assay, 7 days of treatment.
Setting [13] is: ref Table S3 supplementary refs 3, 10, 12, 28, 32.
Where [14] appears, read: read-out: IC50 against T. gondii proliferation, RH strain, 7 days of treatment.
Setting [15] is: 24 h of treatment, read-out: Proliferation index (%).
Where [16] appears, read: read-out: IC50 (μM) in Tachyzoites, RH strain in NHDF cells, plaque assay.
The mark [17] stands for this setting: Human, ref Table S3 supplementary refs 1, 4, 8, 11, 13, 15, 17, 18, 19, 23, 31.
[18] abbreviates: read-out: Plasma concentration (Cmax), Human, ref Table S3 supplementary refs 1, 4, 8, 11, 13, 15, 17, 18, 19, 23.
[19] abbreviates: read-out: Plasma concentration (Cmax), Human, ref Table S3 supplementary refs 20, 22, 25, 31.

As for `COc1cc2c3cc1Oc1c(OC)c(OC)cc4c1[C@@H](Cc1ccc(O)c(c1)Oc1ccc(cc1)C[C@@H]3N(C)CC2)N(C)CC4` [Berbamine], the IC50 in [1] (setting [12]) is 0.31 ± 0.03 µM. Besides, the “Plasma concentration (Cmax)” value in data set [2] was 32.6 ng/mL. For the same compound, the Cmax in [2] (setting [13]) is 53.6 nM. Besides, in [3], the CC50 at 7 days came to 4610 ± 7520 nM and the selectivity ratio at 7 days was determined as 15.
With `C[C@@H]1C[C@@H]([C@H](O)CC2CC(=O)NC(=O)C2)C(=O)[C@@H](C)C1` [Cycloheximide], the IC50 in data set [1] (setting [14]) is no more than 0.03 µM; in data set [5] (setting [16]), 0.02 µM; in [5] (read-out: IC50 against T. gondii proliferation, RH strain), less than 0.03 µM. Further, in data set [4] (31.2 nM, 24 h of treatment, read-out: Proliferation index (%)), the activity at 0.0312 µM came to 47.9%. In [4] (62.5 nM, 24 h, read-out: Inhibition of parasite proliferation), the inhibition at 0.0625 µM lay within 75 to 80%. Besides, the activity at 0.0625 µM in data set [4] (62.5 nM, 24 h of treatment, read-out: Proliferation index (%)) amounted to 30.5%. Also, the activity at 0.125 µM in data set [4] (setting [15]) was 33%. Besides, in [2], the “Plasma concentration (Cmax)” value is reported as 43.1 ng/mL. Further, the Cmax in [2] (setting [13]) was 153 nM. In [3], the CC50 at 7 days came out at 6080 ± 4630 nM. For the same compound, the entries for the “Effect on T. gondii ultrastructure (TEM)” value in data set [6] (62.5 nM) and in data set [6] (125 nM) were “increased endoplasmic reticulum area” and “vacuoles containing parasites were completely lysed”, respectively.
Consider `C[C@H]1O[C@@H](O[C@H]2[C@@H](O)C[C@H](O[C@H]3[C@@H](O)C[C@H](O[C@H]4CC[C@@]5(C)[C@H](CC[C@@H]6[C@@H]5C[C@@H](O)[C@]5(C)[C@@H](C7=CC(=O)OC7)CC[C@]65O)C4)O[C@@H]3C)O[C@@H]2C)C[C@H](O)[C@@H]1O` [Digoxin], for which the IC50 in data set [1] (setting [14]) was no more than 0.03 µM; in data set [1] (setting [12]), 0.03 ± 0.01 µM. The compound also registered a CC50 at 7 days in [3] of 340 ± 320 nM.
`CC[C@H]1CN2CCc3cc(OC)c(OC)cc3[C@@H]2C[C@@H]1C[C@H]1NCCc2cc(OC)c(OC)cc21` [Emetine]: the results for the IC50 in data set [1] (setting [14]) and in [1] (setting [12]) were less than 0.1 µM and 0.05 ± 0.01 µM, respectively. Moreover, the “Plasma concentration (Cmax)” value in [7] (setting [17]) is on record as 9.6 ng/mL. Further, the Cmax in data set [7] (setting [18]) is 20 nM. In addition, the CC50 at 7 days in data set [3] turned out to be 1020 ± 190 nM.
For the compound `CC(C)(C)Cn1c(N)nc2ccc(-c3[nH]c(C(C)(C)C)nc3-c3ccc(F)cc3)nc21` [LY2228820], the values for the IC50 in data set [1] (setting [14]) and in data set [1] (setting [12]) were less than 0.1 µM and 0.04 µM, respectively.
Regarding `COC(=O)C1=C(C)NC(C)=C(C(=O)OCCN2CCN(C(c3ccccc3)c3ccccc3)CC2)C1c1cccc([N+](=O)[O-])c1` (stereo not drawn) [Manidipine], the IC50 in data set [1] (setting [12]) came out at 0.74 ± 0.09 µM. In addition, in [7] (human, in vivo), the Cmax is 9 nM and the “Plasma concentration (Cmax)” value was 5.53 ng/mL.
Consider `COc1cc(NC(=O)Nc2cccc(CNC(=O)O[C@H]3CCOC3)c2)ccc1-c1cnco1` [Merimepodib], for which the results for the IC50 in data set [1] (setting [12]), in data set [8] (72 h of treatment) and in data set [5] (setting [16]) were less than 0.5 µM, 780 nM and 0.48 ± 0.08 µM, respectively. Moreover, the “Plasma concentration (Cmax)” value in [7] (setting [17]) was 1590 ng/mL. The Cmax in data set [7] (setting [18]) is 5510 nM. Besides, in data set [4] (1.5 µM, 24 h, read-out: Inhibition of parasite proliferation), the inhibition at […] was 55 to 60%. Also, in data set [4] (2.0 µM, 24 h, read-out: Inhibition of parasite proliferation), the inhibition at 2 µM was in the range of 55 to 60%.
Regarding `COc1c(C)c2c(c(O)c1C/C=C(\C)CCC(=O)O)C(=O)OC2` [Mycophenolic acid], the IC50 in data set [1] (setting [14]) is less than 0.1 µM; in data set [1] (setting [12]), 0.07 ± 0.01 µM; in data set [8] (24 h of treatment), 211000 nM. In data set [9], this compound had a CC50 at 7 days of 23800 ± 32000 nM. Further, in data set [7] (Human, ref Table S3 supplementary refs 20, 25), the “Plasma concentration (Cmax)” value was 24300 ng/mL. In addition, in data set [7] (setting [19]), the Cmax is 75800 nM. In addition, the activity at 0.125 µM in data set [4] (setting [15]) is 61.3%. The inhibition at […] in data set [4] (250 nM (0.25 µM), 24 h, read-out: Inhibition of parasite proliferation) lay in the range of 55 to 60%. Moreover, in data set [4] (setting [15]), the activity at […] stood at 42%. Further, the selectivity ratio at 7 days in data set [3] was 340. Further, the “Effect on T. gondii ultrastructure (TEM)” value in data set [6] (250 nM) is listed as “affected the tachyzoites’ division process”.
Take `O=C(Nc1ccc([N+](=O)[O-])cc1Cl)c1cc(Cl)ccc1O` [Niclosamide]: the IC50 in data set [1] (setting [12]) turned out to be 0.36 ± 0.02 µM. In addition, the CC50 at 7 days in [9] amounted to 3050 ± 80 nM. Moreover, the “Plasma concentration (Cmax)” value in data set [7] (Human, ref Table S3 supplementary ref 22) is 1280 ng/mL. The Cmax in [7] (setting [19]) is 3900 nM; in data set [2] (ref Table S3 supplementary refs 21, 29) it was 1080 nM. Further, the selectivity ratio at 7 days in [3] came to 8.
As for `O=c1[nH]c2ccccc2n1C1CCN(CCCC(c2ccc(F)cc2)c2ccc(F)cc2)CC1` [Pimozide], the IC50 in data set [1] (setting [12]) is 0.64 ± 0.15 µM.
In the case of `Cc1ccc(C(=O)Nc2ccc(CN3CCN(C)CC3)c(C(F)(F)F)c2)cc1C#Cc1cnc2cccnn12` [Ponatinib], the IC50 in data set [1] (setting [12]) is 0.33 ± 0.03 µM. The “Plasma concentration (Cmax)” value in [7] (setting [17]) is given as 123 ng/mL. The Cmax in [7] (setting [18]) is 231 nM.
On to `CCc1nc(N)nc(N)c1-c1ccc(Cl)cc1` [Pyrimethamine], for which, in data set [4] (setting [15]), the activity at 0.125 µM turned out to be 87.3% and the activity at […] stood at 56.6%. For the same compound, in data set [4] (500 nM, 24 h of treatment, read-out: Proliferation index (%)), the activity at 0.5 µM worked out at 39.2%. In data set [4] (1000 nM, 24 h of treatment, read-out: Proliferation index (%)), the activity at 1 µM worked out at 22%.
For `CCCCc1oc2ccccc2c1C(=O)c1cc(I)c(OCCN(CC)CC)c(I)c1` [amiodarone, Amiodarone], the “Cytotoxicity for the host cells during the initial screening” value in data set [5] was “signs of cytotoxicity for the host cells”.
As to `C[C@H]1O[C@@H](O[C@H]2[C@@H](O)C[C@H](O[C@H]3[C@@H](O)C[C@H](O[C@H]4CC[C@@]5(C)[C@H](CC[C@@H]6[C@@H]5CC[C@]5(C)[C@@H](C7=CC(=O)OC7)CC[C@]65O)C4)O[C@@H]3C)O[C@@H]2C)C[C@H](O)[C@@H]1O` [digitoxin, Digitoxin], the inhibition at 1 µM in data set [1] is no less than 70%.
As to `COc1cccc2c1C(=O)c1c(O)c3c(c(O)c1C2=O)C[C@@](O)(C(=O)CO)C[C@@H]3O[C@H]1C[C@H](N)[C@H](O)[C@H](C)O1` [doxorubicin, Doxorubicin], in data set [1], the inhibition at 1 µM is no less than 70%.
Turning to `C[C@H]1c2cccc(O)c2C(=O)C2=C(O)[C@]3(O)C(=O)C(C(N)=O)=C(O)[C@@H](N(C)C)[C@@H]3[C@@H](O)[C@@H]21` [doxycycline, Doxycycline], the inhibition at 1 µM in data set [1] was no less than 70%.
Still for that read-out and setting: the same measure for `CCC(C)n1ncn(-c2ccc(N3CCN(c4ccc(OCC5COC(Cn6cncn6)(c6ccc(Cl)cc6Cl)O5)cc4)CC3)cc2)c1=O` (stereo not drawn) [itraconazole, Itraconazole]: no less than 70%.
Regarding `C[C@@H]1O[C@@H](O[C@@H]2C=C3CC[C@@H]4[C@H](CC[C@]5(C)[C@@H](c6ccc(=O)oc6)CC[C@]45O)[C@@]3(C)CC2)[C@H](O)[C@H](O)[C@H]1O` [proscillaridin, Proscillaridin], the inhibition at 1 µM in data set [1] is no less than 70%. Besides, in [5] (1 µM, NHDF host cells), the “Cytotoxicity for the host cells during the initial screening” value was “signs of cytotoxicity for the host cells”.
Regarding Ivermectin, the “Effect on tachyzoite cell division (fluorescence microscopy)” value in [10] is “significant cell division arrestment”. The “Plasma concentration (Cmax)” value in [7] (setting [17]) was 260.5 ng/mL; in [11] (Mouse, ref Table S3 supplementary ref 16), 642.3 ng/mL. The Cmax in data set [7] (setting [18]) is 298 nM; in data set [11] (read-out: Plasma concentration (Cmax), Mouse/Mice, ref Table S3 supplementary refs 16, 27), 734 nM. The “Effect on T. gondii ultrastructure (TEM)” value in data set [6] (1 µM) is on record as “induced the formation of myelin-like structures”.
